Assay results taken from patent publication US20080318970A1, “Treatment of Infectious Diseases” (priority 2004, published 2008).

Legend:
E. coli, LN 3164 [1] = experiment: MIC susceptibility test, microdilution broth method (NCCLS), chemosensitising compound alone; format: cell-based; conditions: 37° C., 16 h
Protocol: Bacteria were sub-cultured on Mueller-Hinton agar plates and incubated over night at 37° C. Pre-warmed Mueller-Hinton broth was inoculated with colonies from the plate and incubated for approximately three hours to achieve a log phase culture. The log phase culture of bacteria was diluted with fresh pre-warmed medium and adjusted to a defined Optical Density (OD) at 600 nm in order to give a final assay concentration of 1×10^4 bacteria/ml medium.
Cell growth was tested using the MIC susceptibility tests by use of the microdilution broth method in accordance to the NCCLS Guidelines (NCCLS Guidelines, Methods for Dilution Antimicrobial Susceptibility Tests for Bacteria That Grow Aerobically; Approved Standard, Sixth Edition, Volume 23; Number 2). A 100% Mueller-Hinton broth and a bacterial concentration of 1×10^4/ml were used.
A log phase culture of bacteria was diluted with fresh pre-warmed medium and adjusted to a defined OD at 600 nm in order to give a final concentration of 1×10^4 bacteria/ml medium in each well. Each chemosensitising compound was added to the bacterial culture in the wells in two-fold dilutions in order to give final concentrations ranging from 8 to 500 μg/ml. Trays were incubated at 37° C. for 16 h. Minimal Inhibitory Concentration, (MIC) is defined as the lowest inhibitory concentration showing no visible growth according to the NCCLS Guidelines.

E. coli, LN 3164 [2] = experiment: Effect of chemosensitising compounds on DR (DR ratio) with ciprofloxacin, microtiter assay; format: cell-based; conditions: for DR ratio: MIC ciprofloxacin alone / MIC ciprofloxacin + chemosensitising compound at ¼ of its MIC
Protocol: The effects of the chemosensitising compounds on DR were studied by the microtiter assay described above by exposing cells to 0-64 μg/ml anti-infective drug in the absence or presence of chemosensitising compound. Each experiment was repeated in tripleduplicate. MIC values represent the mean values of two separate experiments.
A log phase culture of bacteria was diluted with fresh pre-warmed medium and adjusted to a defined OD at 600 nm in order to give a final concentration of 1×10^4 bacteria/ml medium in each well. […] Anti-infective agent was added to the bacterial culture in the wells in two-fold dilutions in order to give final concentrations ranging from 0 to 64 μg/ml. Trays were incubated at 37° C. for 16 h. The DR ratio was defined as the ratio between the MIC value for anti-infective agent alone divided by the MIC for the anti-infective agent in the presence of the chemosensitising compound. This ratio represents the increase in apparent potency of the anti-infective agent caused by the chemosensitising compound, and may be expressed as
DR ratio=(MICanti-infective agent)/(MICanti-infective agent+chemosensitising compound)

E. faecalis F84 = experiment: Checkerboard combination study (FIC index); format: cell-based, Enterococcus faecalis; conditions: for FIC index: MDR isolate
Protocol: Enterococcus faecalis, F84. A multidrug resistant clinical isolate.
(§1) The synergistic effect was studied by checkerboard combination studies exposing cells to 0-64 μg/ml anti-infective agent in the absence or presence of trans-flupenthixol, cis-flupenthixol or trans-clopenthixol. Each experiment was repeated in tripleduplicate. MIC values represent the mean values of two separate experiments,
A log phase culture of bacteria was diluted with fresh pre-warmed medium and adjusted to a defined OD at 600 nm in order to give a final concentration of 1×10^4 bacteria/ml medium in each well. […] Anti-infective agent was added to the bacterial culture in the wells in two-fold dilutions in order to give final concentrations ranging from 0 to 64 μg/ml Trays were incubated at 37° C. for 16 h. Wells were assessed visually for growth. The Fractional Inhibitory Concentration (FIC) was calculated for each anti-infective agent alone and in combination with trans-flupenthixol, cis-flupenthixol or trans-clopenthixol. The following formulae were used to calculate the FIC index:
(§2) FIC=FICchemosensitising compound+FICanti-infective agent
(§3) FICchemosensitising compound=(MICchemosensitising compound+anti-infective agent)/(MICchemosensitising compound)
(§4) FICanti-infective agent=(MICanti-infective agent+chemosensitising compound/(MICanti-Infective agent)
(§5) Synergy was defined as a FIC index of <0.5.

E. faecalis F86 = experiment: Checkerboard combination study (FIC index); format: cell-based, Enterococcus faecalis; conditions: anti-infective agent Dicloxacillin; isolate susceptible (S)
Protocol: Enterococcus faecalis, F86. Susceptible clinical isolate. No development of resistance.
as §1
(§6) A log phase culture of bacteria was diluted with fresh pre-warmed medium and adjusted to a defined OD at 600 nm in order to give a final concentration of 1×10^4 bacteria/ml medium in each well. Each chemosensitising compound was added to the bacterial culture in the wells in two-fold dilutions in order to give final concentrations ranging from 0 to 8 μg/ml. Anti-infective agent was added to the bacterial culture in the wells in two-fold dilutions in order to give final concentrations ranging from 0 to 64 μg/ml Trays were incubated at 37° C. for 16 h. Wells were assessed visually for growth. The Fractional Inhibitory Concentration (FIC) was calculated for each anti-infective agent alone and in combination with trans-flupenthixol, cis-flupenthixol or trans-clopenthixol. The following formulae were used to calculate the FIC index:
as §2, §3, §4, §5

S. aureus E45 = experiment: Checkerboard combination study (FIC index); format: cell-based, Staphylococcus aureus; conditions: isolate resistant (R)
Protocol: Staphylococcus aureus E45 MRSA. Clinical isolate. Resistant to methicillin. Susceptible to teicoplanin chloramphenicol, fosfomycin, netilmicin and vancomycin.
as §1, §6, §2, §3, §4, §5

S. aureus O11 = experiment: Checkerboard combination study (FIC index); format: cell-based, Staphylococcus aureus; conditions: anti-infective agent Dicloxacillin; isolate susceptible (S)
Protocol: Staphylococcus aureus O11. Clinical isolate resistant to penicillin. Susceptible to methicillin, tetracycline, beta-lactams, fluoroquinolones, chloramphenicol and aminoglycosides.
as §1, §6, §2, §3, §4, §5

E. coli LN 3164 = experiment: Checkerboard combination study (FIC index); format: cell-based; conditions: MDR isolate
Protocol: E. coli, LN 3164. Acr AB-ToIC MDR in vitro-selected mutant. Resistant to tetracycline, beta-lactams, fluoroquinolones, chloramphenicol and aminoglycosides.
as §1, §6, §2, §3, §4, §5

E. coli 331ME = experiment: Checkerboard combination study (FIC index); format: cell-based; conditions: MDR isolate
Protocol: E. coli 331 ME. In vivo-selected multidrug resistant clinical isolates of E. coli. Strains were isolated from a patient with severe cystitis/urosepsis. Resistant to tetracycline, beta-lactams, fluoroquinolones, chloramphenicol and aminoglycosides.
as §1, §6, §2, §3, §4, §5

P. aeruginosa 432b = experiment: Checkerboard combination study (FIC index); format: cell-based; conditions: isolate resistant (R)
Protocol: P. aeruginosa 432b. Clinical multidrug resistant isolate. Resistant to tetracycline, beta-lactams, fluoroquinolones, and aminoglycosides. Beta-lactamase producing, changes in Penicillin Binding Proteins and changes in Outer Membrane Proteins.
as §1, §6, §2, §3, §4, §5

[3] = clinical trial versus placebo, Johnstone et al.; cited from earlier work
[4] = system: non-resistant mouse pathogen isolate of Streptococcus pneumoniae; conditions: Kristiansen et al. 1998; cited from earlier work
[5] = anti-infective agent Dicloxacillin
[6] = anti-infective agent Fucidic acid
[7] = anti-infective agent Ciprofloxacin
[8] = anti-infective agent Gentamicin
[9] = anti-infective agent Piperacillin

CC(CN1c2ccccc2Sc2ccccc21)N(C)C (stereo not drawn) [Promethazine, promethazine]
MIC (E. coli, LN 3164 [1]): 64 µg/mL | DR ratio (E. coli, LN 3164 [2]; E. coli LN 3164): 8

CSc1ccc2c(c1)N(CCCN(C)C)c1ccccc1S2 [Thiomethylpromazine, thiomethylpromazine]
MIC (E. coli, LN 3164 [1]): 32 µg/mL | DR ratio (E. coli, LN 3164 [2]; E. coli LN 3164): 4

CN1CCN(CCCN2c3ccccc3Sc3ccc(C(F)(F)F)cc32)CC1 [Trifluoperazine, trifluoperazine]
MIC (E. coli, LN 3164 [1]): 16 µg/mL | DR ratio (E. coli, LN 3164 [2]; E. coli LN 3164): 16

CN(C)CCCN1c2ccccc2Sc2ccc(C(F)(F)F)cc21 [Trifluopromazine, trifluopromazine]
MIC (E. coli, LN 3164 [1]): 32 µg/mL | DR ratio (E. coli, LN 3164 [2]; E. coli LN 3164): 8

CN(C)CCCN1c2ccccc2[S+]([O-])c2ccc(Cl)cc21 (stereo not drawn) [chlorpromazine sulfoxide]
activity against drug resistance (in words) (E. coli, LN 3164 [2]; E. coli LN 3164, ciprofloxacin): same activity against drug resistance as did chlorpromazine

CN(C)CCCN1c2ccccc2Sc2ccc(Cl)cc21 [chlorpromazine]
MIC (E. coli, LN 3164 [1]): 32 µg/mL | sensitised drug resistant cells to ciprofloxacin by (E. coli, LN 3164 [2]; E. coli LN 3164, ciprofloxacin): 220% | DR ratio (E. coli, LN 3164 [2]; E. coli LN 3164): 4 | increase in anti-DR activity, tertiary versus secondary amine (E. coli, LN 3164 [2]; chlorpromazine versus desmethylchlorpromazine): 1.6 fold

OCCN1CCN(CC/C=C2/c3ccccc3Sc3ccc(C(F)(F)F)cc32)CC1 [cis-flupenthixol, reference compound]
MIC (E. coli, LN 3164 [1]): 32 µg/mL | DR ratio (E. coli, LN 3164 [2]; E. coli LN 3164): 32 | FIC index (E. faecalis F84; [5]): 0.13 | FIC index (E. faecalis F84; anti-infective agent Vanomycin): 0.25 | FIC index (E. faecalis F86): 0.50 | FIC index (S. aureus E45; [5]): 0.25 | FIC index (S. aureus E45; [6]): 0.26 | FIC index (S. aureus O11): 0.50 | FIC index (E. coli LN 3164; [7]): 0.25 | FIC index (E. coli LN 3164; [8]): 0.25 | FIC index (E. coli LN 3164; [9]): 0.25 | FIC index (E. coli 331ME; [7]): 0.013 | FIC index (E. coli 331ME; [8]): 0.06 | FIC index (E. coli 331ME; [9]): 0.25 | FIC index (P. aeruginosa 432b; [7]): 0.06 | FIC index (P. aeruginosa 432b; [8]): 0.13 | FIC index (P. aeruginosa 432b; [9]): 0.25 | anti-psychotic effect (in words) [3]: potent neuroleptic

OCCN1CCN(CC/C=C2\c3ccccc3Sc3ccc(C(F)(F)F)cc32)CC1 [trans-flupenthixol]
MIC (E. coli, LN 3164 [1]): 32 µg/mL | DR ratio (E. coli, LN 3164 [2]; E. coli LN 3164): 64 | FIC index (E. faecalis F84; [5]): 0.06 | FIC index (E. faecalis F84; anti-infective agent Vanomycin): 0.13 | FIC index (E. faecalis F86): 0.50 | FIC index (S. aureus E45; [5]): 0.13 | FIC index (S. aureus E45; [6]): 0.13 | FIC index (S. aureus O11): 0.50 | FIC index (E. coli LN 3164; [7]): 0.13 | FIC index (E. coli LN 3164; [8]): 0.063 | FIC index (E. coli LN 3164; [9]): 0.13 | FIC index (E. coli 331ME; [7]): 0.006 | FIC index (E. coli 331ME; [8]): 0.02 | FIC index (E. coli 331ME; [9]): 0.13 | FIC index (P. aeruginosa 432b; [7]): 0.03 | FIC index (P. aeruginosa 432b; [8]): 0.06 | FIC index (P. aeruginosa 432b; [9]): 0.13 | anti-psychotic effect (in words) [3]: no activity as an anti-psychotic

CN[C@H](CC(C)C)C(=O)N[C@H]1C(=O)N[C@@H](CC(N)=O)C(=O)N[C@H]2C(=O)N[C@H]3C(=O)N[C@H](C(=O)N[C@H](C(=O)O)c4cc(O)cc(O)c4-c4cc3ccc4O)[C@H](O)c3ccc(c(Cl)c3)Oc3cc2cc(c3O[C@@H]2O[C@H](CO)[C@@H](O)[C@H](O)[C@H]2O[C@H]2C[C@](C)(N)[C@H](O)[C@H](C)O2)Oc2ccc(cc2Cl)[C@H]1O [vancomycin, reference compound]
MIC value (E. faecalis F84; E. faecalis F84 cultivated in the presence of vancomycin at 4 μg/ml): 4 μ/ml

penicillin
MIC [4]: 0.02 µg/mL
